The text below walks through data of patent publication US20100322882A1, “SOLUBILIZING AGENTS FOR ACTIVE OR FUNCTIONAL ORGANIC COMPOUNDS” (ISP INVESTMENTS INC., priority 2006, published 2010).

Series [1] is described as follows: Solubility of solid organic sunscreens in solubilizers (25° C.). Format: physicochemical. As to conditions: for Solubility of MBC in the solvent: solute 4-Methylbenzylidene camphor (MBC); for Solubility of E-517 (Avobenzone) in the solvent: solute Avobenzone (E-517); for Solubility of BEMT in the solvent: solute Bis-ethylhexyloxyphenol methoxyphenyl triazine (BEMT); for Solubility of EHT in the solvent: solute Ethylhexyl triazone (EHT); for Solubility of E-567 (Oxybenzone) in the solvent: solute Oxybenzone (E-567). Here is the method: Upon cooling to 25° C., a few seed crystals (<10 mg) of the sunscreen were added to hasten equilibration. The solutions were stored in the dark in a constant temperature chamber at 25° C. Each was sampled weekly, and the ca. 0.1 g sample was filtered through a 0.45μ syringe filter and analyzed by GLC or HPLC, calibrated using standard solutions, until the value for wt. % of solute was constant.

A short description of series [2]: UV absorption spectra of sunscreens in selected solvents. It is filed as physicochemical. The arrangement: λmax of E-517 / λmax of E-567 / λmax of BEMT / λmax of EHT: unit not given here. The conditions noted are these: for ε of BEMT at λmax / λmax of BEMT: 10 mg/L BEMT in the solvent; for ε of E-517 at λmax / λmax of E-517: 10 mg/L E-517 in the solvent; for ε of E-567 at λmax / λmax of E-567: 10 mg/L E-567 in the solvent; for ε of EHT at λmax / λmax of EHT: 10 mg/L EHT in the solvent; for ε of MBC at λmax / λmax of MBC: 10 mg/L MBC in the solvent. Here is the method: Solutions containing 10 mg/L of sunscreen in selected solvents were prepared, and their UV spectra were measured using a Cary 1E UV-Visible spectrophotometer. […] They are also higher in 2-phenylethyl cyclohexanoate for Escalol® 517 and Escalol® 567.

Setting [3] is: second (shorter wavelength) band.

For the compound `CCC(=O)OC(C)c1ccccc1` (stereo not shown) [1-phenylethyl propionate], in series [1], the “Solubility of MBC in the solvent” value was found to be 44 wt. %, the “Solubility of E-517 (Avobenzone) in the solvent” value (from here on “Solubility of E-517 (Avobenzone)”) is 23 wt. %, the “Solubility of BEMT in the solvent” value was 26 wt. % and the “Solubility of EHT in the solvent” value is on record as 10 wt. %. The “Solubility of E-567 (Oxybenzone) in the solvent” value (shortened to “Solubility of E-567 (Oxybenzone)”) in series [1] came out at 38 wt. %.

For the compound `CCC(=O)OCCOc1ccccc1` [2-phenoxyethyl propionate], in series [1], the “Solubility of MBC in the solvent” value came to 39 wt. %, the “Solubility of E-517 (Avobenzone)” value came to 21 wt. %, the “Solubility of BEMT in the solvent” value stood at 13 wt. % and the “Solubility of EHT in the solvent” value was 6 wt. %. Further, in series [1], the “Solubility of E-567 (Oxybenzone)” value was determined as 38 wt. %.

For the compound `CCCCC(CC)C(=O)OCCc1ccccc1` (stereo not shown) [2-phenylethyl 2-ethylhexanoate], in series [1], the “Solubility of MBC in the solvent” value stood at 34 wt. %, the “Solubility of E-517 (Avobenzone)” value is given as 17 wt. %, the “Solubility of BEMT in the solvent” value is on record as 18 wt. % and the “Solubility of EHT in the solvent” value is 4 wt. %. Besides, the “Solubility of E-567 (Oxybenzone)” value in series [1] was determined as 25 wt. %.

Take `CC(=O)OCCc1ccccc1` [2-phenylethyl acetate]: in series [1], the “Solubility of MBC in the solvent” value amounted to 44 wt. %, the “Solubility of E-517 (Avobenzone)” value was found to be 26 wt. %, the “Solubility of BEMT in the solvent” value is 26 wt. % and the “Solubility of EHT in the solvent” value came to 14 wt. %. Further, the “Solubility of E-567 (Oxybenzone)” value in series [1] was 44 wt. %.

As to `O=C(OCCc1ccccc1)C1CCCCC1` [2-phenylethyl cyclohexanoate, 2-Phenylethyl Cyclohexanecarboxylate], in series [1], the “Solubility of MBC in the solvent” value amounted to 37 wt. %, the “Solubility of E-517 (Avobenzone)” value is reported as 20 wt. %, the “Solubility of BEMT in the solvent” value is reported as 32 wt. % and the “Solubility of EHT in the solvent” value came to 10 wt. %. Besides, the “Solubility of E-567 (Oxybenzone)” value in series [1] was found to be 32 wt. %. In series [2] (first (longer wavelength) band), the “ε of BEMT at λmax” value is recorded as “(49,000)”, the “λmax of BEMT” value is 345, the “ε of E-517 at λmax” value was “(34,500)” and the “λmax of E-517” value was determined as 359. In series [2] (first (longer wavelength) band), the “ε of E-567 at λmax” value is given as “(12,100)” and the “λmax of E-567” value was 326. Also, in series [2] (setting [3]), the “ε of EHT at λmax” value is listed as “(47,300)”, the “λmax of EHT” value was 317, the “ε of MBC at λmax” value is “(10,400)” and the λmax of MBC turned out to be 317 nm.

Take `O=C(OCCc1ccccc1)C1CC1` [2-phenylethyl cyclopropanoate, 2-Phenylethyl Cyclopropanecarboxylate]: in series [1], the “Solubility of MBC in the solvent” value came out at 42 wt. %, the “Solubility of E-517 (Avobenzone)” value was 24 wt. %, the “Solubility of BEMT in the solvent” value came to 27 wt. % and the “Solubility of EHT in the solvent” value stood at 16 wt. %. In addition, the “Solubility of E-567 (Oxybenzone)” value in series [1] is on record as 39 wt. %.

Turning to `CC(C)(C)C(=O)OCCc1ccccc1` [2-phenylethyl neopentanoate], in series [1], the “Solubility of MBC in the solvent” value stood at 38 wt. %, the “Solubility of E-517 (Avobenzone)” value is given as 19 wt. %, the “Solubility of BEMT in the solvent” value came out at 28 wt. % and the “Solubility of EHT in the solvent” value was determined as 5 wt. %. Besides, in series [1], the “Solubility of E-567 (Oxybenzone)” value was 29 wt. %.

As for `CCCCCCCC(=O)OCCc1ccccc1` [2-phenylethyl octanoate], in series [1], the “Solubility of MBC in the solvent” value was 36 wt. %, the “Solubility of E-517 (Avobenzone)” value was 19 wt. %, the “Solubility of BEMT in the solvent” value is 23 wt. % and the “Solubility of EHT in the solvent” value amounted to 8 wt. %. In addition, the “Solubility of E-567 (Oxybenzone)” value in series [1] is given as 27 wt. %.

In the case of `CCCCC(=O)OCCc1ccccc1` [2-phenylethyl pentanoate, 2-Phenylethyl Pentanoate], in series [1], the “Solubility of MBC in the solvent” value amounted to 41 wt. %, the “Solubility of E-517 (Avobenzone)” value turned out to be 22 wt. %, the “Solubility of BEMT in the solvent” value is listed as 27 wt. % and the “Solubility of EHT in the solvent” value was found to be 10 wt. %. Moreover, the “Solubility of E-567 (Oxybenzone)” value in series [1] stood at 35 wt. %. Besides, in series [2] (first (longer wavelength) band), the “ε of BEMT at λmax” value is on record as “(48,000)”, the “λmax of BEMT” value stood at 345, the “ε of E-517 at λmax” value is recorded as “(34,100)” and the “λmax of E-517” value is given as 359. Also, in series [2] (first (longer wavelength) band), the “ε of E-567 at λmax” value was “(9,600)” and the “λmax of E-567” value came out at 327. Besides, in series [2] (setting [3]), the “ε of BEMT at λmax” value is reported as “(42,900)”, the “λmax of BEMT” value is recorded as 312, the “ε of E-567 at λmax” value is recorded as “(14,300)” and the “λmax of E-567” value is reported as 287. Also, in series [2] (setting [3]), the “ε of EHT at λmax” value is recorded as “(123,000)”, the “λmax of EHT” value came out at 312, the “ε of MBC at λmax” value is “(23,600)” and the λmax of MBC was 298 nm.

For `CCC(=O)OCCc1ccccc1` [2-phenylethyl propionate], in series [1], the “Solubility of MBC in the solvent” value is listed as 44 wt. %, the “Solubility of E-517 (Avobenzone)” value worked out at 25 wt. %, the “Solubility of BEMT in the solvent” value was determined as 33 wt. % and the “Solubility of EHT in the solvent” value is 12 wt. %. In addition, the “Solubility of E-567 (Oxybenzone)” value in series [1] was 40 wt. %.

As for `CCCC(=O)OCc1ccccc1` [benzyl butyrate], in series [1], the “Solubility of E-517 (Avobenzone)” value was determined as 24 wt. %, the “Solubility of BEMT in the solvent” value was found to be 32 wt. %, the “Solubility of EHT in the solvent” value amounted to 10 wt. % and the “Solubility of E-567 (Oxybenzone)” value came out at 39 wt. %.

`CC(O)C(=O)OCc1ccccc1` (stereo not shown) [benzyl lactate]: in series [1], the “Solubility of MBC in the solvent” value worked out at 30 wt. %, the “Solubility of E-517 (Avobenzone)” value amounted to 11 wt. %, the “Solubility of BEMT in the solvent” value came to 2 wt. % and the “Solubility of EHT in the solvent” value was determined as 8 wt. %. Also, the “Solubility of E-567 (Oxybenzone)” value in series [1] came to 30 wt. %.

With `CCCCCCCCOC(=O)OCc1ccccc1` [benzyl octyl carbonate], in series [1], the “Solubility of MBC in the solvent” value was 35 wt. %, the “Solubility of E-517 (Avobenzone)” value stood at 17 wt. %, the “Solubility of BEMT in the solvent” value is reported as 18 wt. % and the “Solubility of EHT in the solvent” value is on record as 6 wt. %. For the same compound, the “Solubility of E-567 (Oxybenzone)” value in series [1] amounted to 27 wt. %.

Take `CCCCCCCCOC(=O)OCCCCCCCC` [dioctyl carbonate, reference compound]: in series [1], the “Solubility of MBC in the solvent” value was found to be 29 wt. %, the “Solubility of E-517 (Avobenzone)” value worked out at 13 wt. %, the “Solubility of BEMT in the solvent” value came to 10 wt. % and the “Solubility of EHT in the solvent” value was 7 wt. %. Moreover, the “Solubility of E-567 (Oxybenzone)” value in series [1] is listed as 16 wt. %.

Take `CC(C)CCCCCCCOC(=O)C(C)(C)C` [isodecyl neopentanoate, reference compound]: in series [1], the “Solubility of MBC in the solvent” value was found to be 26 wt. %, the “Solubility of E-517 (Avobenzone)” value came out at 8 wt. %, the “Solubility of BEMT in the solvent” value was 5 wt. % and the “Solubility of EHT in the solvent” value was 3 wt. %. Further, the “Solubility of E-567 (Oxybenzone)” value in series [1] is recorded as 11 wt. %.

For “C12-15 alkyl benzoate [reference compound]”, in series [2] (first (longer wavelength) band), the “ε of BEMT at λmax” value is on record as “(43,800)”, the “λmax of BEMT” value was 347, the “ε of E-517 at λmax” value was “(33,400)” and the “λmax of E-517” value is listed as 358. For the same compound, in series [2] (first (longer wavelength) band), the “ε of E-567 at λmax” value is reported as “(9,260)” and the “λmax of E-567” value came to 328. Besides, in series [2] (setting [3]), the “ε of BEMT at λmax” value was “(40,800)”, the “λmax of BEMT” value stood at 313, the “ε of E-567 at λmax” value is “(9,310)” and the “λmax of E-567” value is on record as 298. In series [2] (setting [3]), the “ε of EHT at λmax” value is “(117,000)”, the “λmax of EHT” value was 313, the “ε of MBC at λmax” value is listed as “(22,000)” and the λmax of MBC worked out at 301 nm.
